The record followed here is patent US6544727B1, “Methods and devices for the removal of psoralens from blood products” (Cerus Corporation, priority 1995, dated 2003).

Series [1] can be described thus: Batch adsorption of 3H-S-59 and photoproducts from illuminated PC, residual radioactivity (Table F). It counts as physicochemical. As to the method: The removal of residual S-59 and S-59 photoproducts from illuminated PC by batch adsorption was investigated. […] Two separate platelet units were treated for each adsorbent; one unit was agitated for 3 hours before the platelets were separated from the adsorbent and transferred to another bag, and the other platelet unit was left in contact with the adsorbent for 4 days. Samples were removed from the units before treatment, after 3 hours of contact with the adsorbent, and on day 4.

Series [2] can be described thus: Residual S-59 and photoproducts D and E in fresh frozen plasma after batch RD (Tables R, T). It counts as physicochemical, human. The protocol: Samples taken from each bag after a 1-hour incubation were analyzed for S-59 and photoproduct removal. The results (n=7) for residual S-59 and photoproducts D and E (two of primary photoproducts formed during illumination, as described above) are presented in Table R (ND=not detectable; 1 hour incubation).
The experiments were performed in the manner described above.

For series [3], the system named is platelets. Briefly: S-59 uptake by platelets and effect of pre-incubation on adsorption kinetics (Example 23). The conditions noted are these: FIG. 25A. It counts as in vitro ADME, human. As to the method:
As discussed previously, S-59 uptake by platelets can occur over a period of several hours before saturation occurs. FIG. 25A graphically depicts S-59 (Co=50 μM) uptake by platelets over time (top) and S-59 release by platelets over time (bottom). As shown in the top graph, S-59 equilibrium is achieved at approximately two hours.
This example is directed to the question of whether partitioning of S-59 into platelets has a significant effect on adsorption kinetics. The adsorption kinetics of PC pre-incubated with S-59 for 24 hours prior to adsorption were compared to adsorption kinetics in PC without a pre-incubation period. […] Samples of PC were removed at various time points and analyzed for levels of residual S-59.

Series [4] can be described thus: S-59 concentration by HPLC before and after illumination and RD treatment (Table Q). The series is classed as physicochemical. As to the method:
Two ABO-matched single donor PCs containing 2−5×10^11 platelets in approximately 300 mL of 35% plasma and 65% PAS III were pooled and redivided into two identical units in PL 2410 Plastic containers (Baxter). One unit (the control) was immediately placed on a platelet shaker and stored at approximately 22° C. The other unit (the test) was treated with 150 μM S-59 and 3 Joules/cm^2 UVA. After treatment, the platelets suspension was transferred into a second PL 2410 Plastic container containing a RD. Contact between platelets and the RD occurred for a period of approximately 8 hours, then the platelet suspension was transferred to a new PL 2410 Plastic container for storage. The time of blood donation was defined as day 0. Treatment with S-59, UVA (320-400 nm), and the RD was performed on day 1. Six replicate experiments were carried out, each with a different pool of two ABO-matched single-donor platelet concentrates.
To evaluate the efficacy of the RD for reducing the concentration of S-59, platelet samples from the test unit were analyzed for S-59 content by HPLC. Samples before illumination, after 3 Joules/cm^2 of illumination, and immediately following the 8-hour RD treatment were analyzed.

The subject of series [5] is platelets. As to the kind of experiment: Partitioning of S-59 in platelet concentrate before and after UVA illumination. It counts as in vitro ADME. The conditions noted are these: % of the original S-59, after UVA.
Source text: During the UVA illumination process, S-59 undergoes a photochemical reaction to form several low molecular weight photoproducts in addition to associating with macromolecules in both the platelet and the plasma fractions. […] This fraction of low molecular weight photoproducts is removed during the scrub process, and their removal can be monitored both by HPLC and by radioactivity measurement using ^3H-labeled S-59.
The S-59 which is not amenable to removal by the scrub/capture process can also be monitored using ^3H-labeled S-59.
Series [6] concerns platelets. As to the kind of experiment: Platelet aggregation (ADP and collagen), aggregometer. It counts as cell-based, human. As to conditions: 100 μM compound, 5 Joules/cm^2, 5 days storage; FIG. 21B. The protocol: To measure the effects of the present compounds and methods of decontamination on platelet function using these four indicators, four samples were prepared for each compound tested, two control samples and two containing compound. Three units of human platelets were obtained from the Sacramento Blood Center, Sacramento, Calif. These were each transferred under sterile conditions to 50 ml centrifuge tubes, then aliquots of each unit were transferred into a second set of 50 ml sterile centrifuge tubes. To each centrifuge tube containing platelet concentrate (PC), an aliquot of compound stock was added to reach a final concentration of 100 μM of compound. […] The samples were pipetted gently up and down to mix. Then aliquots (either 3 ml or 8 ml) of each sample was transferred to two sterile Teflon™ Medi-bags™ (American Fluoroseal Co., Silver Springs, Md.) (presently owned by The West Company, Lionville, Pa.). Samples were treated in one of two different sized bags, having either 3 ml or 8 ml capacity. […] For each compound tested, two control samples without compound were prepared by again removing aliquots of platelet concentrate (17 ml if using an 8 ml bag, 4 ml if using a 3 ml bag) from the same one of the first set of 50 ml centrifuge tubes from which the compound sample was drawn, and dividing into Medibags, as before. […]

The nature of series [7]: Batch adsorption of S-59 and photoproducts from illuminated PC, HPLC (Examples 27, 28). The series is classed as physicochemical. As to the method: The peak corresponding to S-59 is present in the chromatograms representing non-illuminated S-59 (top) and illuminated S-59 (middle) at a retention time of approximately 12 minutes. The other peaks in the chromatogram representing illuminated S-59 (middle) (besides the injection peak at about 3 minutes) correspond to S-59 photoproducts formed during illumination. Note that the peaks appear at time (t)=18 minutes and t=20 minutes are plasma species and are not related to S-59. The peaks which remain in the bottom panel are not S-59 photoproducts, so removal of S-59 and photoproducts was essentially complete in this case as indicated by HPLC (i.e., non-detectable by HPLC).

As for `Cc1oc2c(C)c3oc(=O)cc(C)c3cc2c1COCCN` [Compound 2, 4′-(4-amino-2-oxa)butyl-4,5′,8-trimethylpsoralen], in series [1] (3H-S-59, illuminated PC), the “counts as 3H exchanged water” value is reported as “about 10%”, the “counts associated with plasma macromolecules” value is “about 18%” and the “counts associated with platelet macromolecules” value was “about 15%”. In series [1] (3H-S-59, illuminated PC treated with adsorbent for 4 days), the non-adsorbed radioactivity is given as 36-37%. The “residual S-59 in fresh frozen plasma” value in series [2] (RD with […] g Dowex XUS 43493, approximately one hour incubation) was at most 0.75 µM. Further, the “Concentration in plasma, Pre-Removal” value in series [2] (Table R, 150 μM S-59 in plasma after 3 J/cm^2 UVA, before RD) is 83.30 µM. Moreover, the “Concentration in plasma, Pre-removal (±SD)” value in series [2] (Table T, 150 μM S-59 in plasma after 3 J/cm^2 UVA, before RD) came out at 88.7 ± 4.1 µM. Also, the “time to S-59 uptake equilibrium in platelets” value in the series with platelets [3] was “approximately two”. The “initial S-59 concentration in a platelet concentrate” value in series [4] (0 Joule/cm^2, HPLC) is listed as “approximately 145±10 μM”. The “μM S-59” value in series [4] (Post Treatment With An RD (8 Hours)) turned out to be 0.27 ± 0.05 µM. Moreover, in series [4] (Pre-Treatment (0 Joule/cm^2), platelet concentrate), the “μM S-59” value is 145 ± 10 µM. The “initial S-59 remaining unreacted” value in series [4] (after 3 Joule/cm^2 of illumination) is 20.5%±2.3%. In addition, the “photo-reaction products of S-59” value with platelets [5] was 40-50%. The “reduction in platelet aggregation from the day 1 control” value with platelets [6] was “approximately 8%”. The “removal of S-59” value in series [7] (at 2 hours, Amberlite XAD-4 10 g/300 mL, illuminated platelets in 35% plasma/[…]% PAS III, HPLC) was “greater than 99%”. For the same compound, the “S-59 and low molecular weight photoproducts adsorbed from PCs” value in series [7] (batch devices, appropriate adsorbents) is listed as “greater than 99%”.
